Series [1] deals with M. luteus Q24. The series is described as follows: Inhibition by potential prebiotics spotted on a Q24 lawn. Type of series: cell-based, Streptococcus salivarius. As to conditions: 20 μL spots, 24 hours at 37° C.; for Suitable to be used in Q24 containing serum/product?: 100% to 0.3% (oils at 100% only); for inhibitory concentration vs Blis Q24: 100% to 0.3%. How it is done: CABK12 agar plates were split into segments of 6 and […] suspension of M. luteus […] raw ingredient P3. Each of the aqueous potential prebiotic substances to be screened were serially diluted in a range of concentrations from 100% to 0.3% using sterile distilled water. Oil based substances were tested at 100% only. 20 μL of each concentration, of each substance were pipetted into a spot onto one segment of the […]12 agar plate and was incubated for 24 hours at 37° C. 5% CO2 in air.

For series [2], the system named is skin commensals S. epidermidis #4, S. epidermidis E30, S. hominis ATCC 27844. Nature of the series: Prebiotic activity against skin commensals (growth). Type of series: cell-based. As to conditions: FIG. 14. As to the method:
The same method was used as above for Blis Q24 ingredient except the suspensions with optical density of 0.125 were prepared for each of the 3 selected skin commensals.
The skin commensals selected were: • S. epidermidis #4—Sensitive to Q24 inhibition • S. epidermidis E30—Resistant to Q24 inhibition • S. hominis ATCC 27844—Mixed resistance condition dependent

Series [3] relates to EpiDerm tissues. The series is described as follows: EpiDerm safety experiment, cytokine levels day 0 and day 4. The format is cell-based, human. The conditions noted are these: Blis Q24 1×10^8 CFU/ml or vitamin C 50 μg/mL. How it is done: Upon receipt, the final development of the immature EpiDerm (EPI-201-4D; MatTekCorporation, Ashland, MA, USA) tissues was completed following the manufacturer's instructions. In brief, the tissues were transferred from the agarose-containing gel on which they were shipped to cell culture plates containing pre-warmed differentiation medium (EPI-201-DM). They were then maintained at 37° C. in a 5% CO2 atmosphere for 4 days, with 2 or […] changes to fresh differentiation medium during that period. Finally, the fully developed EpiDerm tissues were transferred to fresh plates containing standard culture medium (EPI-100-NMM) for use in each experiment.
(§1) The maturation of 36 immature EpiDerm tissues was performed as described above. The fully differentiated tissues were numbered from 1-36 and were randomly assigned to receive one of the treatments shown in Table 3. This was done such that each of the 6 combinations of main treatment (PBS, Q24 or vitamin C) and 0.5% SDS exposure treatment (±0.5% SDS) was randomly represented on each of five 6-well cell culture plates. The remaining 6 tissues, which were destined for histology or else to receive 5% SDS, were grouped together on the sixth cell culture plate. Following maturation, the 36 tissues were cultured in the assay medium for 24 h at 37° C. in a 5% CO2 atmosphere, after which the baseline (day 0) conditioned media samples were collected and stored frozen at −80° C. for cytokine measurement. […] The viabilities of the other 33 tissues were assessed using the MTT viability assay.
(§2) For quantification of IL-1β, IFN-α2, IFN-γ, TNF-α, MCP-1 (CCL2), IL-6, IL-8 (CXCL8), IL-10, IL-12p70, IL-17A, 1L-18, IL-23, and IL-33, bead-based multiplex LEGENDplex™ analysis(LEGENDplex™ Human Inflammation Panel 1 (13-plea); BioLegend, San Diego, CA, USA) was used according to the manufacturer's instructions. The relevance of each of the measured cytokines is described in Table 4. […] Data were analysed via Legendplex V8.0 software (BioLegend) and specified as pg/mL.

Series [4] has as its system EpiDerm tissues. The series is described as follows: EpiDerm anti-inflammatory effect, cytokine release in response to 0.5% SDS. As to conditions: pre-treatment, day 5 vs day 4. The format is cell-based, human. As to the method: as §1, §2
Series [5] has as its system Blis Q24. Nature of the series: Effect of prebiotics on the growth of Blis Q24 in M17 broth. Type of series: cell-based, Micrococcus luteus. As to conditions: 5% prebiotic in M17 broth. How it is done:
A batch of M17 broth (Difco #218561) was made, excluding the lactose solution, by following the manufacturer's instructions. 50 ml of broth was dispensed into sterile 100 ml Schott bottles and 2.5 g (5%) of each potential prebiotic substance was added and mixed well using a magnetic stirrer and stir plate. The mixtures were autoclaved at 110° C. for 10 minutes and allowed to cool. The suspensions of the prebiotic candidates were prewarmed to 40° C. in order to allow for increased homogenisation of any oil-based components prior to dispensing into the wells. 2 ml of each suspension and an M17 only (control) were pipetted into a sterile 24 well tissue culture plate. A suspension of […] raw ingredient P3 was made in PBS and adjusted to an optical density of 0.125. 100 μl of the suspension was pipetted into each well. Once the suspension was added each well was mixed by aspirating and dispensing the solution 5 times with a 1 ml pipette. Each sample was enumerated at time points 0, 3, 6, 15, 26 and 34 hours using the following method. […] The number of colonies in each spot were then counted using an electronic colony counter and average to give the final result. […] Olive squalene was selected as one of the preferred prebiotics with 3 others that were analysed in combination with olive squalene and compared to the results of the prebiotic candidates alone (FIG. 13).

This is an account of results in patent US20240156718A1, “TOPICAL COMPOSITION AND USE THEREOF” (BLIS TECHNOLOGIES LIMITED, priority 2021, published 2024).

Take `NC(=O)NC1NC(=O)NC1=O` (stereo not drawn) [Allantoin]: the “Suitable to be used in Q24 containing serum/product?” value in series [1] is given as “Yes”.
Turning to `CC(O)C(=O)O` (stereo not drawn) [Lactic acid (LA), Lactic acid], in series [1], the “Suitable to be used in Q24 containing serum/product?” value is “No” and the “inhibitory concentration vs Blis Q24” value is reported as above 2.5%.
Consider `NC(=O)c1cccnc1` [Niacinamide], for which the “Suitable to be used in Q24 containing serum/product?” value in series [1] is on record as “Yes”.
As to `CC(C)=CCC/C(C)=C/CC/C(C)=C/CC/C=C(\C)CC/C=C(\C)CCC=C(C)C` [Olive Squalene], in series [1], the “Suitable to be used in Q24 containing serum/product?” value was “Yes”. In series [2], the “growth of skin commensals compared to control media” value is listed as “do not offer any advantage”.
Take `CC1=C(/C=C/C(C)=C/C=C/C(C)=C/CO)C(C)(C)CCC1` [Retinol (Vitamin A), Retinol]: the “Suitable to be used in Q24 containing serum/product?” value in series [1] is recorded as “Yes”.
Consider `O=C(O)c1ccccc1O` [Salicylic acid (SA), Salicylic acid], for which, in series [1], the “Suitable to be used in Q24 containing serum/product?” value is on record as “No” and the “inhibitory concentration vs Blis Q24” value is recorded as above 5%.
Consider `O=C1O[C@H]([C@@H](O)CO)C(O)=C1O` [Vitamin C (Ascorbic acid), Ascorbic acid], for which, in series [3] (daily for 4 days), the “IL-6 levels, day 4 vs day 0” value was “slight but significant increase” and the “IL-8 levels, day 4 vs day 0” value is “unchanged”. Further, in series [3] (no significant differences), the “IL-18 levels, day 4 vs day 0” value is on record as “trend for lower values”. The “IL-6 released in response to 0.5% SDS” value in series [4] is on record as “slight increase”. In series [1], the “Suitable to be used in Q24 containing serum/product?” value is given as “Yes”.
With `Cc1c(C)c2c(c(C)c1O)CC[C@@](C)(CCC[C@H](C)CCC[C@H](C)CCCC(C)C)O2` [Vitamin E, D Alpha Tocopherol 1000IU, D Alpha Tocopherol], the “Suitable to be used in Q24 containing serum/product?” value in series [1] was “Yes”.
For `OC[C@@H](O)[C@H](O)[C@@H](O)CO` [Xylitol], the “Suitable to be used in Q24 containing serum/product?” value in series [1] is given as “Yes”. The “growth of Q24 compared to the control” value in series [5] was “detrimental to the live Q24 cell count at 24 hours”.
Take Hyaluronic acid: in series [1], the “Suitable to be used in Q24 containing serum/product?” value is “Yes”.
